Source: paper PMC4992173, “Divergent synthesis and identification of the cellular targets of deoxyelephantopins” (Nature Communications, 2016)

System: proteins enriched from MCF7 cells by probe 24c
Assay: SILAC competitive profiling with probe 24c in MCF7 lysates, proteome-wide
Format: binding, human
Conditions: 20 μM deoxyelephantopin, 10 μM 24c, SILAC ratio<0.30
Excerpt: In our efforts to determine the direct molecular targets of deoxyelephantopin we first performed a gel-based competitive in situ proteomic profiling assay[41] […] While the greater conformational flexibility of probe 24c could potentially lead to more promiscuous target engagement relatively to deoxyelephantopin, it was favoured based on the fact that an alkyne moiety appended to the rigid scaffold of deoxyelephantopin may hinder some of its interactions. MCF7 cells were pretreated with various concentrations of deoxyelephantopin for 4 h, harvested, lysed and the lysates were treated with the fluorogenic probe 24c-Cy3 (10 μM; Supplementary Fig. 10). […] Furthermore, cells were pretreated with 20 μM concentration of deoxyelephantopin or 24c and the proteomic profiles were compared (Fig. 6b, Supplementary Fig. 11). Multiple bands were detected that were equally competed by both DEP and 24c, thus again confirming that 24c can be used as an acceptable clickable analogue of deoxyelephantopin in pulldown assays. Having established the optimal labelling conditions by SDS–PAGE, we next carried out a mass spectrometry-based competitive profiling assay[42] coupled with the method of stable isotope labelling of amino acids in culture (SILAC)[43]. […]
visualization were performed as described above. Images were quantified with ImageJ and kinetics values were calculated using GraphPad Prism (V6.03). […]

C=C(C)C(=O)O[C@H]1CC2=C[C@@H](C/C(C)=C/[C@H]3OC(=O)C(=C)[C@H]13)OC2=O [deoxyelephantopin]
competition of probe 24c labelling (11 proteins): > 70%
